Laboratory results from ChEMBL document CHEMBL6083204, “Synthesis of a celastrol derivative as a cancer stem cell inhibitor through regulation of the STAT3 pathway for treatment of ovarian cancer” (RSC Med Chem, 2024).

Columns and labels:
[1] = Selectivity index, ratio of IC50 for cytotoxicity against human IOSE80 cells to IC50 for cytotoxicity against human SK-OV-3 cells
[2] = Cytotoxicity against human IOSE80 cells assessed as inhibition of cell growth incubated for 72 hrs by MTT assay; assay type: toxicity, cell-based
OVCAR-3 = assay: Antiproliferative activity against human OVCAR-3 cells assessed as inhibition of cell growth incubated for 72 hrs by MTT assay; assay type: functional, cell-based; settings: OVCAR-3, 72 h
SK-OV-3 = assay: Antiproliferative activity against human SK-OV-3 cells assessed as inhibition of cell growth incubated for 72 hrs by MTT assay; assay type: functional, cell-based; settings: SK-OV-3, 72 h
A2780 = assay: Antiproliferative activity against human A2780 cells assessed as inhibition of cell growth incubated for 72 hrs by MTT assay; assay type: functional, cell-based; settings: A2780, 72 h

Row | Compound | Ratio IC50 [1] | IC50 at 72 h [2] [µM] | IC50 (OVCAR-3) [µM] | IC50 (SK-OV-3) [µM] | IC50 (A2780) [µM]
1 | CC1=C(O)C(=O)C=C2C1=CC=C1[C@@]2(C)CC[C@@]2(C)[C@@H]3C[C@](C)(C(=O)O)CC[C@]3(C)CC[C@]12C [CELASTROL] | 1.87 | 2.38 | 0.84 | 1.27 | 1.99
2 | COc1cccc2c1C(=O)c1c(O)c3c(c(O)c1C2=O)C[C@@](O)(C(=O)CO)C[C@@H]3O[C@H]1C[C@H](N)[C@H](O)[C@H](C)O1 [DOXORUBICIN] | – | 0.76 | – | 1.68 | 4.18
